# Assay results as given in patent US12398111B2, “Triazine compounds and pharmaceutical use thereof” (Japan Tobacco Inc., priority 2014, dated 2025).
# Biological target: T1, human mPGES-1 (Homo sapiens, UniProt O14684)
# T1 construct: made in house; host or cells: FreeStyle CHO-S cells (Chinese hamster ovary), transient transfection with pcDNA3.1(+)/human mPGES-1; microsome fraction used
# T1 sequence (O14684 1-152): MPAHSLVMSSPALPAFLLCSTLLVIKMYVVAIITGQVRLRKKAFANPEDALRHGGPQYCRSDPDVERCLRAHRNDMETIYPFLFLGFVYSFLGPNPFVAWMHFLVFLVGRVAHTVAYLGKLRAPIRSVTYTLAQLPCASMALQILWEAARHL
# Experiment: Evaluation of human mPGES-1 enzyme inhibitory activity (PGE2 measured by HTRF, microsome fraction of CHO-S cells expressing human mPGES-1)
# Type: biochemical
# Details: IC50 value; microsome fraction of CHO-S cells expressing human mPGES-1, PGE2 by HTRF
# Protocol: That is, the amount of PGE2 produced by human mPGES-1 in the presence of a test article was measured by the HTRF (homogeneous time resolved fluorescence) method, based on which the human mPGES-1 enzyme inhibitory activity of the test article was determined.
# 1) Preparation of Human mPGES-1 Expressing Cell Microsome Fraction
# A DNA fragment containing human mPGES-1, which is added with a BamHI recognition cleavage sequence immediately before the translation initiation codon and an EcoRI recognition cleavage sequence immediately after the translation termination codon was amplified by the PCR (Polymerase Chain Reaction) method using a human mPGES-1 expression plasmid DNA (pME-18S/iPGES-1) prepared in-house as a template. The purified DNA fragment was digested with BamHI and EcoRI, and ligated to pcDNA3.1(+) (Invitrogen, model number V790-20), similarly digested with BamHI and EcoRI, by using a DNA Ligation kit ver.2.1 (Takara Bio, model number 6022). The human mPGES-1 expression plasmid DNA was isolated from Escherichia coli DH5a (TOYOBO, model number DNA-903) transformed with the obtained ligation product. The base sequence of human mPGES-1 cloned to a vector was determined by the Dye Terminator method by using BigDye Terminator v3.1 Cycle Sequencing Kit (Applied Biosystems, #4337455).
# Human mPGES-1 expression plasmid DNA was transfected into Chinese hamster ovary-derived cells (FreeStyle CHO-S Cell, Invitrogen, #R800-07) by using a transgene reagent (FreeStyle MAX Reagent (Invitrogen, #16447-100)), and cultured with shaking (8% CO2, 37° C.) in a medium containing 8 mmol/L L-glutamine (GIBCO FreeStyle CHO Expression Medium, Invitrogen, #12651-022) for 48 hr.
# The CHO-S cells were suspended in Homogenate Buffer (100 mmol/L potassium phosphate (pH 7.4), 250 mmol/L Sucrose, 100 mmol/L EDTA, complete EDTA free (Roche, #1873580)). Using an ultrasonic disruptor UD-201 (Tomy Seiko), the suspended cells were disrupted at output:3, duty cycle:50 for 30 seconds. The precipitate was removed by centrifugation (1,000×g, 5 min, 4° C.), is and the supernatant was centrifuged (5,000×g, 10 min, 4° C.). The supernatant was further centrifuged (105,000×g, 60 min, 4° C.). The obtained precipitate was suspended in Resuspension Buffer (100 mmol/L potassium phosphate (pH 7.4), 250 mmol/L sucrose, 100 mmol/L EDTA, 10% glycerol) to give a microsome fraction.
# The protein concentration of the microsome fraction was measured by the Bradford method (Protein Assay Kit, Bio-Rad). The microsome fraction was rapidly frozen in liquid nitrogen and preserved at −80° C. Human mPGES-1 in the microsome fraction was detected by Western Blot using rabbit anti-mPGES-1 polyclonal antibody (ThermoFisher Scientific, #PA1-10264).
# 2) Evaluation of Human mPGES-1 Enzyme Inhibitory Activity
# A test article solution diluted with 0.1 mol/L potassium phosphate, pH 7.4 (hereinafter to be referred to as KPB) or DMSO (Nacalai Tesque, #13407-45) was added at 5 μL/well to 96 well V-bottom plate (Corning, #3363). The final DMSO concentration during the reaction was set to 2% (v/v). Furthermore, a microsome fraction of CHO-S cells expressing human mPGES-1, which was diluted with reduced GSH (12.5 mmol/L KPB solution, SIGMA, #G6529-25G) such that the protein concentration was 5 μg/mL, was added at 20 μL/well. The amount of the microsome fraction used is the amount of microsome fraction within a range where the amount of PGE2 produced under the reaction conditions shown below and the amount of microsome fraction used show linearity. To the blank was added reduced GSH (12.5 mmol/L KPB solution) at 20 μL/well.
row,Compound,IC50
1,Cc1ccc(CO)cc1-c1nc(O)nc(-c2ccc(C(F)(F)F)cc2)n1 [Example 1-45],138 nM
2,CC(=O)NCc1ccc(C)c(-c2nc(O)nc(-c3ccc(C(F)(F)F)cc3)n2)c1 [Example 1-47],43 nM
3,COC(C)(C)C(=O)NCc1ccc(Cl)c(-c2nc(O)nc(-c3ccccc3)n2)c1 [Example 1-53],4.5 nM
4,CCc1cccc(-c2nc(O)nc(-c3cc(CNC(=O)C(C)(C)C)ccc3Cl)n2)c1 [Example 1-55],1.1 nM
5,Cc1cccc(-c2nc(O)nc(-c3cc(CNC(=O)C(C)(C)C)ccc3Cl)n2)c1 [Example 1-64],1.9 nM
6,O=C(NCc1ccc(Cl)c(-c2nc(O)nc(-c3ccccc3)n2)c1)C12CC3CC(CC(C3)C1)C2 [Example 1-65],8.6 nM
7,O=C(NCc1ccc(Cl)c(-c2nc(O)nc(-c3ccccc3)n2)c1)C1CCC1 [Example 1-66],4.1 nM
8,O=C(NCc1ccc(Cl)c(-c2nc(O)nc(-c3ccccc3)n2)c1)C1CCCCC1 [Example 1-71],2.5 nM
9,CC1(C(=O)NCc2ccc(Cl)c(-c3nc(O)nc(-c4ccccc4)n3)c2)CCC1 [Example 1-72],1.3 nM
10,COCc1cccc(-c2nc(O)nc(-c3cc(CNC(=O)C(C)(C)C)ccc3Cl)n2)c1 [Example 1-75],6.7 nM
11,CC(C)(C)C(=O)NCc1ccc(Cl)c(-c2nc(O)nc(-c3cccc(F)c3)n2)c1 [Example 1-76],1.7 nM
12,O=C(NCc1ccc(Cl)c(-c2nc(O)nc(-c3cccc(OC(F)(F)F)c3)n2)c1)C1(C(F)(F)F)CCCC1 [Example 1-78],2.2 nM
13,O=C(NCc1ccc(Cl)c(-c2nc(O)nc(-c3cccc(C(F)(F)F)c3)n2)c1)C1(C(F)(F)F)CCCC1 [Example 1-79],1.2 nM
14,CC(C)(C)c1cccc(-c2nc(O)nc(-c3cc(CNC(=O)C4(C(F)(F)F)CCCC4)ccc3Cl)n2)c1 [Example 1-80],3.1 nM
15,CC(C)OC(=O)NCc1ccc(Cl)c(-c2nc(O)nc(-c3cccc(C(C)(C)C)c3)n2)c1 [Example 1-83],11 nM
16,"CC(C)(C)COc1ccc(-c2nc(O)nc(-c3cc(CNC(=O)C(C)(C)C(F)(F)F)ccc3Cl)n2)cc1 [Example 1-86, N-(4-chloro-3-{4-[4-(2,2-dimethylpropoxy)phenyl]-6-hydroxy-1,3,5-triazin-2-yl}benzyl)-3,3,3-trifluoro-2,2-dimethylpropionamide]",5.8 nM
17,CC(C)COc1cccc(-c2nc(O)nc(-c3cc(CNC(=O)C(C)(C)C(F)(F)F)ccc3Cl)n2)c1 [Example 1-88],1.2 nM
18,CC(C)(C)c1cccc(-c2nc(O)nc(-c3cc(CNC(=O)c4ccccc4)ccc3Cl)n2)c1 [Example 1-94],4.6 nM
19,CC(C)Cc1cccc(-c2nc(O)nc(-c3cc(CNC(=O)C(C)(C)C(F)(F)F)ccc3Cl)n2)c1 [Example 1-95],2.1 nM
20,CCO[C@](C)(C(=O)NCc1ccc(Cl)c(-c2nc(O)nc(-c3ccccc3)n2)c1)C(F)(F)F [Example 1-96],81 nM

# Now those with a lower IC50, led by results:
row,IC50,Compound
1,1 nM,CCOc1cccc(-c2nc(O)nc(-c3cc(CNC(=O)C(C)(C)C)ccc3Cl)n2)c1 [Example 1-62]
2,1 nM,O=C(NCc1ccc(Cl)c(-c2nc(O)nc(-c3ccccc3)n2)c1)C1CCCC1 [Example 1-67]
3,0.9 nM,Cc1ccc(CNC(=O)C(C)(C)C)cc1-c1nc(O)nc(-c2ccc(C(F)(F)F)cc2)n1 [Example 1-48]
4,0.9 nM,CC(C)c1cccc(-c2nc(O)nc(-c3cc(CNC(=O)C(C)(C)C)ccc3Cl)n2)c1 [Example 1-49]
5,0.9 nM,CCCc1cccc(-c2nc(O)nc(-c3cc(CNC(=O)C(C)(C)C)ccc3Cl)n2)c1 [Example 1-50]
6,0.9 nM,CC(C)(C)C(=O)NCc1ccc(Cl)c(-c2nc(O)nc(-c3cccc(C(F)(F)F)c3)n2)c1 [Example 1-54]
7,0.9 nM,CC(C)(C(=O)NCc1ccc(Cl)c(-c2nc(O)nc(-c3cccc(OC(F)(F)F)c3)n2)c1)C(F)(F)F [Example 1-77]
8,0.9 nM,CO[C@@](C)(C(=O)NCc1ccc(Cl)c(-c2nc(O)nc(-c3ccccc3)n2)c1)C(F)(F)F [Example 1-89]
9,0.8 nM,CC(C)Oc1ccc(-c2nc(O)nc(-c3cc(CNC(=O)C(C)(C)C)ccc3Cl)n2)cc1 [Example 1-82]
10,0.8 nM,CO[C@](C)(C(=O)NCc1ccc(Cl)c(-c2nc(O)nc(-c3ccccc3)n2)c1)C(F)(F)F [Example 1-87]
11,0.7 nM,CC(C)c1ccc(-c2nc(O)nc(-c3cc(CNC(=O)C(C)(C)C)ccc3Cl)n2)cc1 [Example 1-46]
12,0.7 nM,CC(C)(C)C(=O)NCc1ccc(Cl)c(-c2nc(O)nc(-c3cccc(OC(F)(F)F)c3)n2)c1 [Example 1-61]
13,0.7 nM,O=C(NCc1ccc(Cl)c(-c2nc(O)nc(-c3ccccc3)n2)c1)C1(C(F)(F)F)CCC1 [Example 1-70]
14,0.7 nM,Cc1cc(C)cc(-c2nc(O)nc(-c3cc(CNC(=O)C(C)(C)C(F)(F)F)ccc3Cl)n2)c1 [Example 1-93]
15,0.6 nM,CCCc1ccc(-c2nc(O)nc(-c3cc(CNC(=O)C(C)(C)C)ccc3Cl)n2)cc1 [Example 1-44]
16,0.6 nM,CC1(C(=O)NCc2ccc(Cl)c(-c3nc(O)nc(-c4ccccc4)n3)c2)CCCCC1 [Example 1-52]

row,IC50,Compound
1,0.6 nM,COC(C)(C)C(=O)NCc1ccc(Cl)c(-c2nc(O)nc(-c3ccc(C(F)(F)F)cc3)n2)c1 [Example 1-56]
2,0.6 nM,CC(C)(C(=O)NCc1ccc(Cl)c(-c2nc(O)nc(-c3cccc(C(F)(F)F)c3)n2)c1)C(F)(F)F [Example 1-59]
3,0.6 nM,CC1(C(=O)NCc2ccc(Cl)c(-c3nc(O)nc(-c4ccccc4)n3)c2)CCCC1 [Example 1-73]
4,0.6 nM,CC(C)(C)C(=O)NCc1ccc(Cl)c(-c2nc(O)nc(-c3ccc(F)cc3)n2)c1 [Example 1-74]
5,0.6 nM,COC(C)(C)C(=O)NCc1ccc(Cl)c(-c2nc(O)nc(-c3cccc(C(C)(C)C)c3)n2)c1 [Example 1-84]
6,0.5 nM,CC(C)(C)C(=O)NCc1ccc(Cl)c(-c2nc(O)nc(-c3cccc(C(C)(C)C)c3)n2)c1 [Example 1-57]
7,0.5 nM,CCC(C)(C)C(=O)NCc1ccc(Cl)c(-c2nc(O)nc(-c3cccc(C(F)(F)F)c3)n2)c1 [Example 1-58]
8,0.5 nM,Cc1ccc(-c2nc(O)nc(-c3cc(CNC(=O)C(C)(C)C)ccc3Cl)n2)cc1 [Example 1-63]
9,0.5 nM,CCOc1cccc(-c2nc(O)nc(-c3cc(CNC(=O)C4(C(F)(F)F)CCCC4)ccc3Cl)n2)c1 [Example 1-85]
10,0.5 nM,CC(C)(C)c1cccc(-c2nc(O)nc(-c3cc(CNC(=O)C(C)(C)C(F)(F)F)ccc3Cl)n2)c1 [Example 1-92]
11,0.4 nM,CC(C)(C)C(=O)NCc1ccc(Cl)c(-c2nc(O)nc(-c3ccc(OC(F)(F)F)cc3)n2)c1 [Example 1-60]
12,0.4 nM,Cc1cc(-c2nc(O)nc(-c3cc(CNC(=O)C(C)(C)C(F)(F)F)ccc3Cl)n2)ccc1F [Example 1-90]
13,0.4 nM,CC(C)Oc1cccc(-c2nc(O)nc(-c3cc(CNC(=O)C(C)(C)C(F)(F)F)ccc3Cl)n2)c1 [Example 1-91]
14,0.3 nM,O=C(NCc1ccc(Cl)c(-c2nc(O)nc(-c3ccccc3)n2)c1)C1(C(F)(F)F)CCCC1 [Example 1-68]
15,0.3 nM,CC(C)(C(=O)NCc1ccc(Cl)c(-c2nc(O)nc(-c3ccccc3)n2)c1)C(F)(F)F [Example 1-69]
